Patent publication EP2386565A2, “Compounds and methods to inhibit or augment an inflammatory response” (Cambridge Enterprise Ltd., priority 1999, dated 2000)
Positions of bridges follow the written chain, without caps; N, C: chain ends. Non-standard residues stand in square brackets, D forms with d. Residues, ends and D or L forms follow the SMILES beside them.

How the values were obtained:
[1] = tested on: TGFβ1 induced THP-1 migration; assay: THP-1 trans-well migration assay, TGFβ1 as non-chemokine control chemoattractant; assay type: cell-based, human; settings: for % inhibition at 100 µM versus TGFβ1: THP-1 migration, agent at 100 µM, n.s. = no statistically significant inhibition
Method: Any method suitable for counting cells can be used, for example, counting with a hemocytometer, incubation of the cells with MTT (see above), or FACS analysis. A negative control assay is also performed, using TGF-β or another non-chemokine chemoattractant (e.g., IL1β or TNFα). To assess whether the agent is cytotoxic, the same concentrations of agent are incubated with THP-1 cells. Agents which 1) are not cytotoxic at levels which inhibit migration, 2) are ineffective at inhibiting the negative control-induced migration, and 3) reduce or inhibit chemokine-induced THP-1 migration, are agents which fall within the scope of the invention.
For this assay, THP-1 cells were maintained at a density of 4 × 10^5 cells per ml in RPMI-1640 supplemented with 10% fetal calf serum + 20 µM 2-mercaptoethanol. Chemotaxis was induced in a 96-well disposable chemotaxis chamber fitted with a 5 µM polycarbonate filter (PVP free, ChemoTX, Neuroprobe Inc., Cabin John). Twenty-nine µl of chemoattractant (recombinant human chemokine; 50 ng/ml, i.e., 5.9 nM) or control (100 ng/ml TGFβ) was added to the lower compartment of each well. The framed filter was aligned with the holes in the corner of the filter frame and placed over the wells.
Five × 10^4 THP-1 cells in 25 µl of RPMI-1640 were added to the upper compartment. Peptides were dissolved in Milli Q water and then serially diluted in culture medium. […]
After incubation, the cells were gently removed from the top of the filter with a pipette, 20 µl of 20 mM EDTA in PBS was added into each top well, and the mixture was incubated for 20 minutes at 4°C. […] A standard curve was prepared to accurately quantify the number of THP-1 cells that had migrated. […] Absorbance of converted dye was measured at a wavelength of 595 nm using an ELISA plate reader. The number of cells that had migrated in each well was determined by interpolation of the standard curve.
To investigate the receptor specificity of peptide 3 inhibition, the ED50 was determined for peptide 3(1-12)[MCP-1] […]

[2] = tested on: antigen specific antibody recall response; assay: Antigen (scFv) recall response, safety and serum levels after single i.v. dose; assay type: in vivo, Cynomolgus monkeys
Method: Cynomolgus monkeys were immunized with antigen that is a single chain Fv (scFv) protein. Each animal previously received 3 i.v. injections of the antigen and all developed high serum titers. Five animals were randomly divided into 2 groups. Two animals served as PBS treated controls and 3 were treated i.v. with 50 mg/kg CRD-Leu4Ile11Cys13 peptide 3(3-12)[MCP-1]. Thirty minutes following CRD-Leu4Ile11Cys13 peptide 3(3-12)[MCP-1] treatment all animals were challenged i.v. with 3.5 mg/kg antigen. In addition, animals were challenged intradermal with each of the following in a volume of 50 µl:PBS; 50 µg antigen; 5 µg antigen; 0.5 µg antigen; 500 ng MCP-1; or 50 ng LPS. Serum was collected at 10 minutes, 30 minutes, 60 minutes, 4 hours, and 24 hours. Animals were sacrificed 24 hours after CRD-Leu4Ile11Cys13peptide 3(3-12)[MCP-1] injection and complete necropsy performed and tissues fixed for histopathology. Fixed and frozen skin samples were harvested for histopathology and immunohistochemistry. Blood, spleen, and lymph node were harvested for assessment of cell function in migration assay, proliferation assay, and antigen specific antibody and cytokine recall. Blood was also analyzed pre- and post-CRD-Leu4Ile11Cys13 peptide 3(3-12)[MCP-1] injection for hematology parameters and serum chemistry. Serum levels were evaluated by an LC-MS method (limit of quantitation = 1 µg/ml) pre-treatment and then at 10 minutes, 30 minutes, 60 minutes, 4 hours and 20-24 hours after injection. Urinalysis was performed pre- and post-CRD-Leu4Ile11Cys13 peptide 3(3-12)[MCP-1] injection.

D2s dopamine receptors = molecular target: T1, D2s dopamine receptors (Homo sapiens, UniProt P14416); assay: Competition of 3H-spiperone binding to membranes; settings: 100 µM highest concentration tested
T1 construct: purchased RBI/Sigma D-179; host or cells: membranes
Method: For dopamine receptor binding, membranes (D-179, RBI/Sigma) are diluted into binding buffer (75 mM Tris pH 7.4, 12.5 mM MgCl2 and 2 mM EDTA). For example, 10 µl of membranes are diluted in 500 µl of binding buffer (i.e., 1:50 dilution), which is aliquoted into labelled tubes. Cold competitor or test competitor is added, (e.g., 5 µl of 100x stock solution; 5 µl of 1 mM haloperidol solution (H-100, RBI/Sigma in DMSO). Radioligand is then added (^3H-Spiperone, TRK 818, Amersham, 250 µCi in 250 µl, 10.5 µM at 95 Ci/mmol). For competition studies, 0.5 nM is used. A 100x stock (i.e., 50 nM) is made by diluting the commercial stock 1:210 in binding buffer, and 5 µl is added to every tube. Control tubes have radioligand but no membranes. The mixtures are vortexed, then spun very briefly. The mixtures are then incubated for 1 hour at 27°C in a water bath. The mixture is filtered through GF/C filters over a vacuum. Each filter is pre-soaked in polyethyleneimine (0.3% in water; add 1 ml of 10% stock (P-261; RBI/Sigma) to 33 ml of MilliQ water). The tubes are washed with 2-3 ml of wash buffer (50 mM Tris pH 7.4) and the wash filtered. The filters are then rinsed with 3 × 5 ml of wash buffer, air dried, placed in a scintillation vial and 4.5 ml of scintillant added. The activity on the filter is then determined.

T1 sequence (P14416 1-414 isoform P14416-2): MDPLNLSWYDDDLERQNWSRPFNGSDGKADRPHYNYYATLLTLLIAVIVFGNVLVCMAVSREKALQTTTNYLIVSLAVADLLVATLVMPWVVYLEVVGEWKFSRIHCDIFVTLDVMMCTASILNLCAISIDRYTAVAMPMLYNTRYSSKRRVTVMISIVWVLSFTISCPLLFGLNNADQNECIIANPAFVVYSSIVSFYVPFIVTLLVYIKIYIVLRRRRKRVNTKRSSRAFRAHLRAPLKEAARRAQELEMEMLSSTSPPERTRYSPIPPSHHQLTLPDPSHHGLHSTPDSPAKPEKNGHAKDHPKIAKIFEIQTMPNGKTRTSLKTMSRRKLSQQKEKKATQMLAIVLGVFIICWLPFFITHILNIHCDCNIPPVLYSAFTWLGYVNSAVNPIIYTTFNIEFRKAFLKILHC

| Structure (SMILES) | % inhibition at 100 µM versus TGFβ1 [1] | % inhibition at 100 µM versus TGFβ1 ([1]; listed as peptide 1[MCP-1]) | ED50 (µM) versus TGFβ1 ([1]; inhibition of THP-1 migration, n.s. = not statistically significant) | hematology and serum chemistry (in words) ([2]; 50 mg/kg i.v.) | period with detectable drug levels in serum after treatment ([2]; 50 mg/kg i.v.) [h] | antigen specific antibody in recall responses of splenocytes, lymph node cells and PBL (in words) ([2]; single i.v. dose 50 mg/kg) | ED50 for competition of spiperone binding to short splice variant D2 dopamine receptor (D2s dopamine receptors) [µM] |
| --- | --- | --- | --- | --- | --- | --- | --- |
| CC[C@H](C)[C@H](NC(=O)[C@H](C)NC(=O)[C@H](CC(=O)O)NC(=O)[C@@H]1CCCN1C(=O)[C@H](CCC(N)=O)NC(=O)[C@H](C)N)C(=O)N[C@@H](CC(N)=O)C(=O)N[C@@H](C)C(=O)N1CCC[C@H]1C(=O)N[C@H](C(=O)N[C@H](C(=O)N[C@@H](CS)C(=O)N[C@@H](CS)C(=O)O)[C@@H](C)O)C(C)C [Peptide 1] (H-AQPDAINAPVTCC-OH; N-terminus and C-terminus assumed) | n.s. | did not significantly inhibit | n.s. | – | – | – | – |
| CC[C@@H](C)[C@H]1NC(=O)[C@@H](CCC(N)=O)NC(=O)[C@H](N)CSSC[C@H](C(N)=O)NC(=O)[C@@H](CC(C)C)NC(=O)[C@@H](CC(=O)O)NC(=O)[C@H]2CCCN2C(=O)[C@@H](CCCCN)NC(=O)[C@@H](CCC(N)=O)NC(=O)[C@@H](CCCCN)NC(=O)[C@@H](Cc2c[nH]c3ccccc23)NC1=O (H-[dC][dQ][dI][dW][dK][dQ][dK][dP][dD][dL][dC]-NH2; disulfide 1-11) | – | – | – | No clinically significant changes | 4 | lowest detectable levels of antigen specific antibody | >100 |
